Experimental data as given in patent US20260053932A1, “COMPOUNDS AND METHODS FOR THE TARGETED DEGRADATION OF ANDROGEN RECEPTOR AND ASSOCIATED METHODS OF USE” (Arvinas Operations, Inc., priority 2020, published 2026).
Read-outs that look alike come from different tables or passages of the source.

Test system: androgen receptor (AR) in LNCaP and/or VCaP cells
Assay: Androgen Receptor ELISA assay (AR degradation)
Type: cell-based
In short: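 VCaP cells grown ≥3 days, then treated 5 h with compound in media containing 1 nM R1881 (10× stock). Cells lysed and AR quantified by sandwich ELISA (mouse AR detection Ab, HRP anti-mouse, TMB). DC50 and Dmax derived from AR degradation.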

[1] = LNCaP and/or VCaP cells, 5 hours incubation, media with R1881, read-out: DC50 Code* (degradation of AR ELISA)
[2] = degradation of AR ELISA in LNCaP and/or VCaP cells, Table 2C, read-out: DC50 Code*

DC50 [1] [nM]	DC50 [2] [nM]	Structure (SMILES)
< 1		COc1cc(O[C@H]2CC[C@H](NC(=O)c3cnc(N4CC5(CC(CN(C(C)C)[C@H]6C[C@H](Oc7ccc8c(c7)CN(C7CCC(=O)NC7=O)C8=O)C6)C5)C4)cn3)CC2)ccc1C#N (some centres unmarked) [Compound 27, N-((1r,4r)-4-(4-cyano-3-methoxyphenoxy)cyclohexyl)-5-(6-((((1r,3r)-3-((2-(2,6-dioxopiperidin-3-yl)-1-oxoisoindolin-5-yl)oxy)cyclobutyl) (isopropyl)amino)methyl)-2-azaspiro[3.3]heptan-2-yl)pyrazine-2-carboxamide]
	< 1	COc1cc(O[C@H]2C[C@H](N(CCN3CCOCC3)CC3CCN(c4cnc(C(=O)N[C@H]5C(C)(C)[C@H](Oc6cc(C)c(C#N)c(C)c6)C5(C)C)cn4)CC3)C2)cc2c1C(=O)N(C1CCC(=O)NC1=O)C2=O (some centres unmarked) [compound 210, N-((1r,3r)-3-(4-cyano-3,5-dimethylphenoxy)-2,2,4,4-tetramethylcyclobutyl)-5-(4-((((1r,3r)-3-((2-(2,6-dioxopiperidin-3-yl)-7-methoxy-1,3-dioxoisoindolin-5-yl)oxy)cyclobutyl)(2-morpholinoethyl)amino)methyl)piperidin-1-yl)pyrazine-2-carboxamide]
> 100		COc1cc(O[C@H]2CC[C@@H](NC(=O)c3cnc(N4CCC(CN(C(C)C)[C@H]5C[C@H](Oc6ccc7c(c6)C(=O)N(C6CCC(=O)NC6=O)C7=O)C5)CC4)cn3)C2)ccc1C#N (stereo partly drawn) [Compound 6, N-((1R,3S)-3-(4-cyano-3-methoxyphenoxy)cyclopentyl)-5-(4-((((1r,3R)-3-((2-(2,6-dioxopiperidin-3-yl)-1,3-dioxoisoindolin-5-yl)oxy)cyclobutyl) (isopropyl)amino)methyl)piperidin-1-yl)pyrazine-2-carboxamide]
	< 1	Cc1cc(O[C@H]2C(C)(C)[C@H](NC(=O)c3ccc(N4CCC5(CC4)CN(CCOc4ccc6c(c4)C(=O)N(C4CCC(=O)NC4=O)C6=O)CCO5)cc3)C2(C)C)cc(C)c1C#N (mixture of isomers) [compound 182, rac-N-((1r,3r)-3-(4-cyano-3,5-dimethylphenoxy)-2,2,4,4-tetramethylcyclobutyl)-4-(4-(2-((2-(2,6-dioxopiperidin-3-yl)-1,3-dioxoisoindolin-5-yl)oxy)ethyl)-1-oxa-4,9-diazaspiro[5.5]undecan-9-yl)benzamide]
< 1		CC(C)N(CC1CCN(c2cnc(C(=O)N[C@H]3CC[C@H](Oc4ccc(C#N)c(Cl)c4)CC3)cn2)CC1)[C@H]1C[C@H](Oc2ccc3c(c2F)C(=O)N(C2CCC(=O)NC2=O)C3=O)C1 (some centres unmarked) [Compound 52, N-((1r,4r)-4-(3-chloro-4-cyanophenoxy)cyclohexyl)-5-(4-((((1r,3r)-3-((2-(2,6-dioxopiperidin-3-yl)-4-fluoro-1,3-dioxoisoindolin-5-yl)oxy)cyclobutyl) (isopropyl)amino)methyl)piperidin-1-yl)pyrazine-2-carboxamide]
	< 1	Cc1cc(O[C@H]2C(C)(C)[C@H](NC(=O)c3ccc(N4CCC(CN5CCOC[C@@H]5COc5ccc6c(c5)C(=O)N(C5CCC(=O)NC5=O)C6=O)CC4)cc3)C2(C)C)cc(C)c1C#N (stereo partly drawn) [compound 213, N-((1r,3R)-3-(4-cyano-3,5-dimethylphenoxy)-2,2,4,4-tetramethylcyclobutyl)-4-(4-(((3R)-3-(((2-(2,6-dioxopiperidin-3-yl)-1,3-dioxoisoindolin-5-yl)oxy)methyl)morpholino)methyl)piperidin-1-yl)benzamide]
	< 1	COc1cc(O[C@H]2C[C@H](N(CC3CCN(c4ncc(C(=O)N[C@H]5C(C)(C)[C@H](Oc6cc(C)c(C#N)c(C)c6)C5(C)C)cn4)CC3)C(C)C)C2)cc2c1C(=O)N(C1CCC(=O)NC1=O)C2=O (some centres unmarked) [compound 79, N-((1r,3r)-3-(4-cyano-3,5-dimethylphenoxy)-2,2,4,4-tetramethylcyclobutyl)-2-(4-((((1r,3r)-3-((2-(2,6-dioxopiperidin-3-yl)-7-methoxy-1,3-dioxoisoindolin-5-yl)oxy)cyclobutyl) (isopropyl)amino)methyl)piperidin-1-yl)pyrimidine-5-carboxamide]
< 1		N#Cc1ccc(O[C@H]2CC[C@H](NC(=O)c3cnc(N4CCC(CN(CC5COC5)[C@H]5C[C@H](Oc6ccc7c(c6)C(=O)N(C6CCC(=O)NC6=O)C7)C5)CC4)cn3)CC2)cc1Cl (some centres unmarked) [Compound 48, N-((1r,4r)-4-(3-chloro-4-cyanophenoxy)cyclohexyl)-5-(4-((((1r,3r)-3-((2-(2,6-dioxopiperidin-3-yl)-3-oxoisoindolin-5-yl)oxy)cyclobutyl)(oxetan-3-ylmethyl)amino)methyl)piperidin-1-yl)pyrazine-2-carboxamide]
	< 1	COCCN(CC1CCN(c2cnc(C(=O)N[C@H]3C(C)(C)[C@H](Oc4cc(C)c(C#N)c(C)c4)C3(C)C)cn2)CC1)[C@H]1C[C@H](Oc2ccc3c(c2)C(=O)N(C2CCC(=O)NC2=O)C3)C1 (mixture of isomers) [compound 223, rac-N-((1r,3r)-3-(4-cyano-3,5-dimethylphenoxy)-2,2,4,4-tetramethylcyclobutyl)-5-(4-((((1r,3r)-3-((2-(2,6-dioxopiperidin-3-yl)-3-oxoisoindolin-5-yl)oxy)cyclobutyl)(2-methoxyethyl)amino)methyl)piperidin-1-yl)pyrazine-2-carboxamide]
< 1		CC(C)N(CC1CCN(c2ncc(C(=O)N[C@H]3C(C)(C)[C@H](Oc4ccc(C#N)c(Cl)c4)C3(C)C)cn2)CC1)[C@H]1CC[C@H](Oc2ccc3c(c2)C(=O)N(C2CCC(=O)NC2=O)C3=O)CC1 (some centres unmarked) [Compound 26, N-((1r,3r)-3-(3-chloro-4-cyanophenoxy)-2,2,4,4-tetramethylcyclobutyl)-2-(4-((((1r,4r)-4-((2-(2,6-dioxopiperidin-3-yl)-1,3-dioxoisoindolin-5-yl)oxy)cyclohexyl) (isopropyl)amino)methyl)piperidin-1-yl)pyrimidine-5-carboxamide]
	< 1	Cc1cc(O[C@H]2C(C)(C)[C@H](NC(=O)c3cnc(N4CCC(CN(C(C)C)[C@H]5C[C@H](Oc6ccc7c(c6)C(=O)N(C6CCC(=O)NC6=O)C7=O)C5)CC4)cn3)C2(C)C)cc(C)c1C#N (some centres unmarked) [compound 112, N-((1r,3r)-3-(4-cyano-3,5-dimethylphenoxy)-2,2,4,4-tetramethylcyclobutyl)-5-(4-((((1r,3r)-3-((2-(2,6-dioxopiperidin-3-yl)-1,3-dioxoisoindolin-5-yl)oxy)cyclobutyl) (isopropyl)amino)methyl)piperidin-1-yl)pyrazine-2-carboxamide]
	< 1	COc1cc(O[C@H]2C[C@H](N(CC3CCN(c4ncc(C(=O)N[C@H]5C(C)(C)[C@H](Oc6cc(C)c(C#N)c(C)c6)C5(C)C)cn4)CC3)CC(F)(F)F)C2)cc2c1C(=O)N(C1CCC(=O)NC1=O)C2=O (some centres unmarked) [compound 179, N-((1r,3r)-3-(4-cyano-3,5-dimethylphenoxy)-2,2,4,4-tetramethylcyclobutyl)-2-(4-((((1r,3r)-3-((2-(2,6-dioxopiperidin-3-yl)-7-methoxy-1,3-dioxoisoindolin-5-yl)oxy)cyclobutyl)(2,2,2-trifluoroethyl)amino)methyl)piperidin-1-yl)pyrimidine-5-carboxamide]
< 1		N#Cc1ccc(O[C@H]2CC[C@H](NC(=O)c3cnc(N4CCC(CN(C5CCOCC5)[C@H]5C[C@H](Oc6ccc7c(c6)C(=O)N(C6CCC(=O)NC6=O)C7=O)C5)CC4)cn3)CC2)cc1Cl (some centres unmarked) [Compound 30, N-((1r,4r)-4-(3-chloro-4-cyanophenoxy)cyclohexyl)-5-(4-((((1r,3r)-3-((2-(2,6-dioxopiperidin-3-yl)-1,3-dioxoisoindolin-5-yl)oxy)cyclobutyl) (tetrahydro-2H-pyran-4-yl)amino)methyl)piperidin-1-yl)pyrazine-2-carboxamide]
< 1		CC(C)N(CC1CCN(c2cnc(C(=O)N[C@H]3CC[C@H](Oc4ccc(C#N)c(Cl)c4)CC3)cn2)CC1)[C@H]1C[C@H](Oc2cc(F)c3c(c2)C(=O)N(C2CCC(=O)NC2=O)C3=O)C1 (some centres unmarked) [Compound 42, N-((1r,4r)-4-(3-chloro-4-cyanophenoxy)cyclohexyl)-5-(4-((((1r,3r)-3-((2-(2,6-dioxopiperidin-3-yl)-7-fluoro-1,3-dioxoisoindolin-5-yl)oxy)cyclobutyl) (isopropyl)amino)methyl)piperidin-1-yl)pyrazine-2-carboxamide]
	< 1	[2H]C([2H])([2H])Oc1cc(O[C@H]2C[C@H](N(CC3CCN(c4cnc(C(=O)N[C@H]5C(C)(C)[C@H](Oc6cc(C)c(C#N)c(C)c6)C5(C)C)cn4)CC3)C(C)C)C2)cc2c1C(=O)N(C1CCC(=O)NC1=O)C2=O (mixture of isomers) [compound 195, rac-N-((1r,3r)-3-(4-cyano-3,5-dimethylphenoxy)-2,2,4,4-tetramethylcyclobutyl)-5-(4-((((1r,3r)-3-((2-(2,6-dioxopiperidin-3-yl)-7-(methoxy-d3)-1,3-dioxoisoindolin-5-yl)oxy)cyclobutyl) (isopropyl)amino)methyl)piperidin-1-yl)pyrazine-2-carboxamide]
< 1		COc1cc(O[C@H]2C[C@H](N(CC3CCN(c4cnc(C(=O)N[C@H]5CC[C@H](Oc6cc(C)c(C#N)c(C)c6)CC5)cn4)CC3)C(C)C)C2)cc2c1C(=O)N(C1CCC(=O)NC1=O)C2=O (some centres unmarked) [Compound 17, N-((1r,4r)-4-(4-cyano-3,5-dimethylphenoxy)cyclohexyl)-5-(4-((((1r,3r)-3-((2-(2,6-dioxopiperidin-3-yl)-7-methoxy-1,3-dioxoisoindolin-5-yl)oxy)cyclobutyl) (isopropyl)amino)methyl)piperidin-1-yl)pyrazine-2-carboxamide]
< 1		CC(C)N(CC1CCN(c2cnc(C(=O)N[C@H]3CC[C@H](Oc4ccc(C#N)c(Cl)c4)CC3)cn2)CC1)[C@H]1CC[C@H](Oc2ccc3c(c2)C(=O)N(C2CCC(=O)NC2=O)C3=O)CC1 (some centres unmarked) [Compound 35, N-((1r,4r)-4-(3-chloro-4-cyanophenoxy)cyclohexyl)-5-(4-((((1r,4r)-4-((2-(2,6-dioxopiperidin-3-yl)-1,3-dioxoisoindolin-5-yl)oxy)cyclohexyl) (isopropyl)amino)methyl)piperidin-1-yl)pyrazine-2-carboxamide]
